{
  "source": "PubChem BioAssay AID449762",
  "about": "(Southern Research Specialized Biocontainment Screening …, 2010)",
  "tested_on": "M. tuberculosis H37Rv growth inhibition, 7H9 media",
  "experiment": "M. tuberculosis growth inhibition, HTS (AID 449762);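 note: bacterial growth assessed after seven days of incubation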",
  "details": "for IC90: measured here: IC90 growth inhibition",
  "note": "Inconclusive results are not listed.",
  "data": [
    {"smiles": "O=c1cc(CCl)nc(Cc2c(Cl)cccc2Cl)[nH]1", "values": [
      {"measurement": "IC50", "result": 0.51, "unit": "µM"},
      {"measurement": "IC90", "result": 68.7, "unit": "µM"}
    ]},
    {"smiles": "O=C(OCC(=O)c1c[nH]c2ccccc12)c1cc(Br)ccc1O", "values": [
      {"measurement": "IC50", "result": 9.23, "unit": "µM"},
      {"measurement": "IC90", "result": 15.3, "unit": "µM"}
    ]},
    {"smiles": "CCCOc1ccc2oc(=O)c3c(c2c1)CCCN3C(=O)CN1CCN(c2ncccn2)CC1", "values": [
      {"measurement": "IC50", "result": 20.8, "unit": "µM"},
      {"measurement": "IC90", "result": 33.8, "unit": "µM"}
    ]},
    {"smiles": "O=C1CCc2ccc(OCCCCN3CCN(c4cccc(Cl)c4Cl)CC3)cc2N1", "values": [
      {"measurement": "IC50", "result": 13.1, "unit": "µM"},
      {"measurement": "IC90", "result": "> 100", "unit": "µM"}
    ]},
    {"smiles": "CCCn1c(CC)nc([N+](=O)[O-])c1S(=O)(=O)c1ccccc1", "values": [
      {"measurement": "IC50", "result": 7.8, "unit": "µM"},
      {"measurement": "IC90", "result": 22.6, "unit": "µM"}
    ]},
    {"smiles": "CCC(C)Nc1ccc(NC(C)CC)cc1", "note": "(configuration not stated)", "values": [
      {"measurement": "IC50", "result": 1.12, "unit": "µM"},
      {"measurement": "IC90", "result": 1.69, "unit": "µM"}
    ]},
    {"smiles": "CN(/N=C/c1cc(Br)cc(Br)c1O)c1cccc(C(F)(F)F)n1", "values": [
      {"measurement": "IC50", "result": 3.93, "unit": "µM"},
      {"measurement": "IC90", "result": 7.43, "unit": "µM"}
    ]},
    {"smiles": "CCN(CC)S(=O)(=O)c1ccc2oc(SCC(=O)Nc3cc(C)on3)nc2c1", "values": [
      {"measurement": "IC50", "result": 1.39, "unit": "µM"},
      {"measurement": "IC90", "result": 5.88, "unit": "µM"}
    ]},
    {"smiles": "COC(=O)C1=C(C)NC(=O)/C1=C\\c1cc(C)n(-c2cccc(C)c2)c1C", "values": [
      {"measurement": "IC90", "result": "> 100", "unit": "µM"}
    ]},
    {"smiles": "CCCCCCCNC1=CC(=O)CC(c2ccccc2)C1", "note": "(configuration not stated)", "values": [
      {"measurement": "IC50", "result": 41.6, "unit": "µM"},
      {"measurement": "IC90", "result": 53.9, "unit": "µM"}
    ]},
    {"smiles": "Cn1c(SCc2ccccc2)nc(N)c(N=O)c1=O", "values": [
      {"measurement": "IC50", "result": 3.5, "unit": "µM"},
      {"measurement": "IC90", "result": 20.8, "unit": "µM"}
    ]},
    {"smiles": "CCc1c(C)sc(NC(=S)N2CCN(CC)CC2)c1C(=O)OC", "values": [
      {"measurement": "IC50", "result": 12.7, "unit": "µM"},
      {"measurement": "IC90", "result": "> 100", "unit": "µM"}
    ]},
    {"smiles": "O=C(CCC(=O)OCc1ccc(C(=O)Oc2ccc(Cl)cc2)cc1)Nc1ccccc1", "values": [
      {"measurement": "IC50", "result": 16.4, "unit": "µM"},
      {"measurement": "IC90", "result": 44, "unit": "µM"}
    ]},
    {"smiles": "O=C1C2(Cl)C3(Cl)C4(Cl)C(Cl)(Cl)C5(Cl)C3(Cl)C1(Cl)C5(Cl)C24Cl", "note": "(configuration not stated)", "values": [
      {"measurement": "IC50", "result": 46.7, "unit": "µM"},
      {"measurement": "IC90", "result": 53, "unit": "µM"}
    ]},
    {"smiles": "Cc1cc([N+](=O)[O-])c2ccccc2[n+]1[O-]", "values": [
      {"measurement": "IC50", "result": 5.76, "unit": "µM"},
      {"measurement": "IC90", "result": 9.62, "unit": "µM"}
    ]},
    {"smiles": "O=C1c2ccccc2S(=O)(=O)c2cc(C(=O)N3CCN(c4c(Cl)cncc4Cl)CC3)ccc21", "values": [
      {"measurement": "IC50", "result": 32, "unit": "µM"},
      {"measurement": "IC90", "result": 46.5, "unit": "µM"}
    ]},
    {"smiles": "CC(C)Cn1c([N+](=O)[O-])nc2c1c(=O)[nH]c(=O)n2C", "values": [
      {"measurement": "IC50", "result": 5.93, "unit": "µM"},
      {"measurement": "IC90", "result": 8.91, "unit": "µM"}
    ]},
    {"smiles": "CSCCCNC(=S)N1CCN(c2ccc(C(C)=O)cc2)CC1", "values": [
      {"measurement": "IC50", "result": 24.8, "unit": "µM"},
      {"measurement": "IC90", "result": 44.1, "unit": "µM"}
    ]},
    {"smiles": "CCc1noc(C)c1C(=O)Nc1nc(-c2ccc(F)cc2)c(C)s1", "values": [
      {"measurement": "IC50", "result": 8.8, "unit": "µM"},
      {"measurement": "IC90", "result": 36.9, "unit": "µM"}
    ]},
    {"smiles": "COC(=O)[C@H](CCSC)NC(=O)N1CCN(c2cccc(C(F)(F)F)c2)CC1", "values": [
      {"measurement": "IC50", "result": 14.4, "unit": "µM"},
      {"measurement": "IC90", "result": 40.5, "unit": "µM"}
    ]},
    {"smiles": "NN/C(=C\\[N+](=O)[O-])Nc1ccc(Cl)cc1", "values": [
      {"measurement": "IC50", "result": 45.9, "unit": "µM"},
      {"measurement": "IC90", "result": "> 100", "unit": "µM"}
    ]},
    {"smiles": "COc1cccc(-c2nnc(NC(=O)c3ccc(S(=O)(=O)N4CCOCC4)cc3)o2)c1", "values": [
      {"measurement": "IC50", "result": 23.6, "unit": "µM"},
      {"measurement": "IC90", "result": 26.7, "unit": "µM"}
    ]},
    {"smiles": "Cc1ccn2c(NC3CCCCC3)c(-c3cccc(-c4cccc(Cl)c4)c3)nc2c1", "values": [
      {"measurement": "IC50", "result": 14.2, "unit": "µM"},
      {"measurement": "IC90", "result": 27, "unit": "µM"}
    ]},
    {"smiles": "COc1ccc(C(=O)Cn2nc(CNc3ccc(Br)cc3)[n+]3c2CCCCC3)cc1", "values": [
      {"measurement": "IC50", "result": 9.77, "unit": "µM"},
      {"measurement": "IC90", "result": 13.7, "unit": "µM"}
    ]},
    {"smiles": "Cc1cc(NC(=O)c2cc(-c3ccncc3)nc3c(C)cccc23)no1", "values": [
      {"measurement": "IC50", "result": 46.5, "unit": "µM"},
      {"measurement": "IC90", "result": "> 100", "unit": "µM"}
    ]},
    {"smiles": "CCOc1cc(C=O)cc(N=Nc2cccc([N+](=O)[O-])c2)c1O", "values": [
      {"measurement": "IC50", "result": 3.98, "unit": "µM"},
      {"measurement": "IC90", "result": 11.6, "unit": "µM"}
    ]},
    {"smiles": "Cc1ccc(C(=O)C2CCN(CC(=O)Nc3nc(C)cs3)CC2)cc1", "values": [
      {"measurement": "IC50", "result": 13.6, "unit": "µM"},
      {"measurement": "IC90", "result": 25.2, "unit": "µM"}
    ]},
    {"smiles": "O=C(Nc1ccn(Cc2ccccc2F)n1)c1ccc(COc2ccccc2Cl)cc1", "values": [
      {"measurement": "IC50", "result": 11.6, "unit": "µM"},
      {"measurement": "IC90", "result": 13.2, "unit": "µM"}
    ]},
    {"smiles": "CCOc1ccc(C2c3[nH]c4ccccc4c3C[C@H]3C(=O)N(C4CCN(Cc5ccccc5)CC4)CC(=O)N23)cc1OC", "note": "(some centres not stated)", "values": [
      {"measurement": "IC50", "result": 21.5, "unit": "µM"},
      {"measurement": "IC90", "result": 29.7, "unit": "µM"}
    ]},
    {"smiles": "CC(c1ccccc1)N1CCN(C(=O)CCl)CC1", "note": "(configuration not stated)", "values": [
      {"measurement": "IC50", "result": 1.26, "unit": "µM"},
      {"measurement": "IC90", "result": 3.24, "unit": "µM"}
    ]},
    {"smiles": "Cc1cc(C)n(C(=O)c2ccc([N+](=O)[O-])cc2[N+](=O)[O-])n1", "values": [
      {"measurement": "IC50", "result": 4.57, "unit": "µM"},
      {"measurement": "IC90", "result": 8.45, "unit": "µM"}
    ]},
    {"smiles": "CCn1c(NC(=O)c2nn(C)cc2Br)nc2ccccc21", "values": [
      {"measurement": "IC50", "result": 4.39, "unit": "µM"},
      {"measurement": "IC90", "result": 12.7, "unit": "µM"}
    ]},
    {"smiles": "CCCOc1ccc2c(c1)C(=NN=C(N)N)c1cc(OCCC)ccc1-2", "values": [
      {"measurement": "IC50", "result": 12.4, "unit": "µM"},
      {"measurement": "IC90", "result": 13.1, "unit": "µM"}
    ]},
    {"smiles": "O=[N+]([O-])/C=C/c1cn(Cc2ccccc2)c2ccccc12", "values": [
      {"measurement": "IC50", "result": 82.9, "unit": "µM"},
      {"measurement": "IC90", "result": "> 100", "unit": "µM"}
    ]},
    {"smiles": "Cc1nn(-c2ccccc2)c(C)c1/C=N/NC(=O)c1cc(-c2cccc3ccccc23)n[nH]1", "values": [
      {"measurement": "IC50", "result": 29, "unit": "µM"},
      {"measurement": "IC90", "result": "> 100", "unit": "µM"}
    ]},
    {"smiles": "C#CCOc1ccc2c(c1)c(C(C)=O)c(C)n2Cc1ccccc1", "values": [
      {"measurement": "IC50", "result": 68.4, "unit": "µM"},
      {"measurement": "IC90", "result": "> 100", "unit": "µM"}
    ]},
    {"smiles": "C=CCc1c(C)nc(C)nc1N/N=C/c1ccccc1O", "values": [
      {"measurement": "IC50", "result": 2.25, "unit": "µM"},
      {"measurement": "IC90", "result": 4.08, "unit": "µM"}
    ]},
    {"smiles": "Fc1cccc(CCN2CCNC[C@H]2Cc2cccc3ccccc23)c1", "values": [
      {"measurement": "IC50", "result": 36.6, "unit": "µM"},
      {"measurement": "IC90", "result": 43.2, "unit": "µM"}
    ]},
    {"smiles": "Cc1ccc(N2CCN(C(=O)c3cn(CC4CCCCC4)nn3)C(C)C2)cc1", "note": "(configuration not stated)", "values": [
      {"measurement": "IC50", "result": 4.1, "unit": "µM"},
      {"measurement": "IC90", "result": 12.4, "unit": "µM"}
    ]},
    {"smiles": "Cc1ccccc1Nc1nc(N)nc(COC(=O)c2ccc([N+](=O)[O-])o2)n1", "values": [
      {"measurement": "IC50", "result": 0.49, "unit": "µM"},
      {"measurement": "IC90", "result": 2.46, "unit": "µM"}
    ]},
    {"smiles": "Cc1ccc(C2(c3ccc(C)cc3)CC2C(=O)Nc2ccc([N+](=O)[O-])cc2O)cc1", "note": "(configuration not stated)", "values": [
      {"measurement": "IC50", "result": 19.7, "unit": "µM"},
      {"measurement": "IC90", "result": 27.1, "unit": "µM"}
    ]},
    {"smiles": "Cc1cc(NC(=O)c2sccc2C)n(-c2nc3ccccc3[nH]2)n1", "values": [
      {"measurement": "IC50", "result": 2.94, "unit": "µM"},
      {"measurement": "IC90", "result": "> 100", "unit": "µM"}
    ]},
    {"smiles": "O=C1/C(=N\\S(=O)(=O)c2cccs2)C([n+]2ccc(CCCc3ccccc3)cc2)=C([O-])c2ccccc21", "values": [
      {"measurement": "IC50", "result": 18.2, "unit": "µM"},
      {"measurement": "IC90", "result": 22.1, "unit": "µM"}
    ]},
    {"smiles": "O=C1Nc2ccc(Br)cc2/C1=C/C(=O)c1ccc2c(c1)OCO2", "values": [
      {"measurement": "IC50", "result": 7.71, "unit": "µM"},
      {"measurement": "IC90", "result": 18.1, "unit": "µM"}
    ]}
  ]
}
